From patent US8710088B2, “Pharmaceutical and diagnostic compositions for use in the treatment and diagnosis of neurodegenerative diseases or amyloid diseases” (Max-Delbruck-Centrum fur Molekulare Medizin, priority 2004, dated 2014)
Blank lines part the entries; values can stand above or below the compound they belong to.

Legend:
[1] = target: T1, mutant huntingtin (GST fusion protein GST-HDQ51) (Homo sapiens, UniProt P42858, INS38QQQQQQQQQQQQQQQQQQQQQQQQQQQQQQ); experiment: in vitro amyloid fibril formation of huntingtin, electron microscopy; assay type: biochemical
T1 construct: GST (N)
Protocol: (§1) As in the tests described by Heiser et al. (2002), the protein was used for aggregation tests to which either only solvent or solvent and the chemical agent in question was added. Aliquots of these batches were examined by means of the membrane filter test and electron microscopy.
(§2) As in the tests described by Heiser et al. (2002), the protein was used for aggregation tests to which either only solvent or solvent and 7-amino-8-(2,4-dihydroxy-6-methyl-phenyl)-1,9-dimethyl-phenoxazine-3-one was added. Aliquots of these batches were examined by means of the membrane filter test (FIG. 1B) and electron microscopy (FIGS. 1E and 1F).

[2] = system: neuronally differentiated PC12 cells; experiment: toxicity of extracellular Aβ1-42 in neuronally differentiated PC12 cells, MTT test; assay type: cell-based; conditions: 48 h
Protocol: (§3) Analogously, the compounds were also examined in aggregation assays with the amyloid β-peptide Aβ1-42(E22Q), which is a particularly rapidly aggregating variant of amyloid β, as well as with non-mutated (wild type) Aβ1-42. For this purpose, the peptide was incubated at a concentration of 15 μM in a phosphate buffer with a physiological pH value of 7.4 for 42 h at 37° C. and subsequently, aliquots were examined by means of the membrane filter method (Figure) or electron microscopy (Figures) as well. […] Cell viability measurements were carried out in neuronally differentiated PC12 cells to which beta-amyloid and the substances to be tested were added extracellularly in order to examine whether the compounds are able to reduce toxicity caused by amyloid-beta. After 48 h the viability of the cells (approximately corresponds to the number of vital cells) was measured.

wild type Aβ1-42 = target: T2, wild type Aβ1-42 (Homo sapiens, UniProt P05067); experiment: aggregation assay with wild type Aβ1-42, membrane filter method; assay type: biochemical; conditions: peptide 15 μM, pH 7.4, 42 h, 37° C.
T2 construct: non-mutated (wild type) Aβ1-42
Protocol: as §3

[3] = target: T3, amyloid β-peptide Aβ1-42[E22Q] (Homo sapiens, UniProt P05067, E693Q); experiment: aggregation assay with Aβ1-42[E22Q], membrane filter method or electron microscopy; assay type: biochemical; conditions: 15 μM peptide, pH 7.4, 42 h, 37° C.
T3 construct: the amyloid β-peptide Aβ1-42[E22Q]
Protocol: as §3
Analogously, the compound was also examined in aggregation assays with the amyloid β-peptide Aβ1-42[E22Q] which is a particularly rapidly aggregating variant of amyloid β. For this purpose, the peptide was incubated at a concentration of 15 μM in a phosphate buffer with a physiological pH value of 7.4 for 42 h at 37° C. and subsequently, aliquots were examined by means of the membrane filter method (FIG. 1A) or electron microscopy (FIGS. 1C and 1D) as well.

COS1 cells = experiment: total amount of protein in the cell lysate (toxicity) in the COS1 model; assay type: cell-based
Protocol: (§4) The compounds were then tested in several cell culture models of polyglutamine diseases, inter alia Huntington's chorea. For this purpose, COS1 cells were transiently transfected with the plasmid pTL1-CAG51 already described above (Sittler, A., Walter, S., Wedemeyer, N., Hasenbank, R., Scherzinger, E., Eickhoff, H., Bates, G. P., Lehrach, H. and Wanker, E. E. (1998) Mol Cell 2, 427-36) and cultivated for 44 h in the presence of solvents or the chemical agents. Subsequently, the amount of aggregate was determined with the help of the membrane filter test as described by Heiser et al. (2002). […] The latter could be deduced from the total amount of protein in the cell lysate (FIG. 2B) which was determined with the help of cell extracts.
7-Amino-8-(2,4-dihydroxy-6-methyl-phenyl)-1,9-dimethyl-phenoxazine-3-one was then tested in a cell culture model of Huntington's chorea. […] Subsequently, the amount of aggregate was determined with the help of the membrane filter test as described by Heiser et al. (2002). […] The latter could be deduced from the total amount of protein (FIG. 2B) which was determined with the help of cell extracts.

caspases-3/-7 = experiment: caspase activity in the COS1 model of Huntington's chorea, fluorogenic substrate; assay type: cell-based; conditions: fluorometric
Protocol: (§5) In addition, it was examined in this cell culture model of Huntington's chorea whether the substances tested substances can cause cell damage by initiating apoptotic processes. For this purpose, the activity of two caspases (caspases-3/-7) was determined fluorometrically after addition of a fluorogenic substrate.
as §5, with “7-amino-8-(2,4-dihydroxy-6-methyl-phenyl)-1,9-dimethyl-phenoxazine-3-one” for “the substances tested substances”, “(caspases 3 and 7)” for “(caspases-3/-7)”

huntingtin = target: T4, huntingtin (Homo sapiens, UniProt P42858, INS38QQQQQQQQQQQQQQQQQQQQQQQQQQQQQQ); experiment: cell culture model of Huntington's chorea: COS1 cells transfected with pTL1-CAG51, membrane filter test; assay type: cell-based; conditions: 40-44 h, membrane filter method
T4 construct: expressed in transfected cells; host or cells: COS1 cells, transient transfection
Protocol: as §4
7-Amino-8-(2,4-dihydroxy-6-methyl-phenyl)-1,9-dimethyl-phenoxazine-3-one was then tested in a cell culture model of Huntington's chorea. For this purpose, COS1 cells were transiently transfected with the plasmid pTL1-CAG51 already described above (Sittler, A., Walter, S., Wedemeyer, N., Hasenbank, R., Scherzinger, E., Eickhoff, H., Bates, G. P., Lehrach, H. and Wanker, E. E. (1998) Mol Cell 2, 427-36) and cultivated for 40-44 h in the presence of solvents or 7-amino-8-(2,4-dihydroxy-6-methyl-phenyl)-1,9-dimethyl-phenoxazine-3-one. Subsequently, the amount of aggregate was determined with the help of the membrane filter test as described by Heiser et al. (2002). […] The latter could be deduced from the total amount of protein (FIG. 2B) which was determined with the help of cell extracts.

[4] = target: T1, mutant huntingtin (GST fusion protein GST-HDQ51); experiment: in vitro aggregation of mutant huntingtin, membrane filter test; assay type: biochemical; conditions: membrane filter method
Protocol: as §1, §2

alpha-synuclein = alpha-synuclein amyloid fibril formation, electron microscopy; assay type: biochemical; conditions: wild type protein or mutant (A53T)
Source text: For this purpose, the wild type protein or a mutant (A53T) was used.

neuroblastoma cells = neuroblastoma cells damaged with amyloid β-peptide; cited from earlier work
[5] = system: ataxin-3 deletion construct (aa 221-360) with 71 glutamines; experiment: ataxin-3 aggregation in COS-1 cells, filtration method; assay type: cell-based; conditions: 40 h, membrane filter method
Protocol: For some compounds, a positive effect could be observed in another cell culture model of Huntington's chorea and a cell culture model of spinocerebellar ataxia (type 3). A test system based on the aggregation of an N-terminal ataxin-3 deletion construct (aa 221-360) with 71 glutamines in COS-1 cells was developed to isolate substances inhibiting the ataxin-3 aggregation. The cells were transiently transfected with the ataxin-3 expression construct and incubated in plates with 96 perforations with the added substance at 37° C. in an incubator. After 40 h the cells were harvested and lysated. The lysates were denatured in the presence of 2% SDS and analyzed using the filtration method.

amyloid-beta fibrils = amyloid-beta fibrils (Homo sapiens, UniProt P05067); experiment: binding to amyloid-beta aggregates located on a cellulose acetate membrane; conditions: colored substances
Source text: FIG. 16: Binding to amyloid-beta aggregates located on a cellulose acetate membrane

T4 sequence (P42858 with tags, fused parts or gaps with the stated changes limits assumed): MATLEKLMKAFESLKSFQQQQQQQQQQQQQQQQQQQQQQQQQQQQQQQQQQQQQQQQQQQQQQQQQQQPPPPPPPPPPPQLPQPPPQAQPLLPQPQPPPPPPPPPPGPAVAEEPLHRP
T1 sequence (P42858 with tags, fused parts or gaps with the stated changes limits assumed): as above
T2 sequence (P05067 672-713 limits assumed): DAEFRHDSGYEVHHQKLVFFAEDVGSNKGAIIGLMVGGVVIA
T3 sequence (P05067 672-713 E693Q): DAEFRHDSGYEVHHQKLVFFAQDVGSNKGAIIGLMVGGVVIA
Chain of amyloid-beta fibrils (P05067 672-713 limits assumed): as the sequence (P05067 672-713 limits assumed) above

Compound: c1cc2c3c(cccc3c1)NC(c1ccncc1)N2 [2-pyridine-4-yl-2,3-dihydro-1H-perimidine]
Inhibition of the amyloid fibril formation of huntingtin (Exon-1) [1]: Inhibition of the amyloid fibril formation

Inhibition of the aggregation of wild type Aβ1-42 (SDS-insoluble aggregates) (wild type Aβ1-42): Inhibition of the aggregation
Compound: Nc1cccc(C2=Nc3cccc4cccc(c34)N2)c1 [3-(1H-perimidine-2-yl)-phenylamine]
Inhibition of toxicity of extracellular wild type Aβ1-42 [2]: Inhibition of toxicity

Compound: Cc1cc(=O)cc2oc3cc(N)c(-c4c(C)cc(O)cc4O)c(C)c3nc1-2 [7-amino-8-(2,4-dihydroxy-6-methyl-phenyl)-1,9-dimethyl-phenoxazine-3-one]
Inhibition of the aggregation of amyloid β-peptide Aβ1-42[E22Q] [3]: effectively inhibits the aggregation
increase of total protein content (COS1 cells; COS1 cells cultivated in presence of compound): ~20%
toxic effect, deduced from total amount of protein (COS1 cells; COS1 cells, at the concentrations used): without having a toxic effect
caspase activity (caspases 3 and 7) (caspases-3/-7): caspase activity was reduced
Inhibition of the amyloid fibril formation of huntingtin (Exon-1) [1]: aggregation inhibiting effect
Inhibition of the aggregation of huntingtin in mammalian cells (huntingtin): aggregation inhibiting influence
Inhibition of the aggregation of huntingtin (Exon-1) (SDS-insoluble aggregates) [4]: aggregation inhibiting effect

Compound: Oc1cc(O)c2c(c1)O[C@H](c1cc(O)c(O)c(O)c1)[C@H](O)C2 [EGC, (−)-Epigallocatechin]
Inhibition of the aggregation of huntingtin (Exon-1) (SDS-insoluble aggregates) [4]: Inhibition of the aggregation
Inhibition of the aggregation of alpha-synuclein (amyloid fibrils) (alpha-synuclein): Inhibition of the aggregation

Compound: O=C(O[C@@H]1Cc2c(O)cc(O)cc2O[C@@H]1c1cc(O)c(O)c(O)c1)c1cc(O)c(O)c(O)c1 [EGCG, (−)-Epigallocatechin gallate]
neuroprotective effect (neuroblastoma cells): neuroprotective effect
Inhibition of the aggregation of alpha-synuclein (amyloid fibrils) (alpha-synuclein): Inhibition of the aggregation

Compound: Oc1cc(O)c2c(c1)O[C@@H](c1cc(O)c(O)c(O)c1)[C@H](O)C2 [GC, (−)-Gallocatechin]
Inhibition of the aggregation of huntingtin (Exon-1) (SDS-insoluble aggregates) [4]: Inhibition of the aggregation
Inhibition of the aggregation of alpha-synuclein (amyloid fibrils) (alpha-synuclein): Inhibition of the aggregation

Inhibition of the aggregation of huntingtin in mammalian cells (huntingtin): Inhibition of the aggregation
Compound: CC(=O)N1CCN(c2ccc(OC(=O)Cc3cccs3)cc2)CC1 [Thiophene-2-yl-acetic acid 4-(4-acetyl-piperazine-1-yl)-phenyl ester]
Inhibition of the aggregation of ataxin-3 in mammalian cells [5]: Inhibition of the aggregation

Compound: alpha-amino-orcein
direct binding to amyloid-beta fibrils (amyloid-beta fibrils): bind directly to amyloid-beta fibrils
Inhibition of toxicity of extracellular wild type Aβ1-42 [2]: Inhibition of the toxicity
Inhibition of the aggregation of wild type Aβ1-42 (SDS-insoluble aggregates) (wild type Aβ1-42): Inhibition of the aggregation
Inhibition of the aggregation of huntingtin in mammalian cells (huntingtin): Inhibition of the aggregation
